Measured values: patent US20110015226A1, “Treatment of Energy Utilization Disease” (SUMMIT CORPORATION PLC, priority 2008, published 2011)
Read-outs that look alike come from different tables or passages of the source.

Key:
Format in all cases: biochemical
[1] = target: T1, β-Glucuronidase Bovine liver (Bos taurus, UniProt A3KMY8); assay: Glycosidase inhibition: β-Glucuronidase Bovine liver; settings: for % Glucuronidase inhibition at 0.8 mM Bovine Liver: approximately 0.8 mM;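 as to all read-outs here: bovine liver β-glucuronidase acting on p-nitrophenyl β-D-glucuronide substrate in citric acid/disodium hydrogen phosphate buffer, pH 5.0, 27 °C, mean of triplicate runs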
T1 construct: The assay involved the use of Bovine liver β-glucuronidase; purchased Sigma; host or cells: bovine liver
T1 sequence (A3KMY8 1-652): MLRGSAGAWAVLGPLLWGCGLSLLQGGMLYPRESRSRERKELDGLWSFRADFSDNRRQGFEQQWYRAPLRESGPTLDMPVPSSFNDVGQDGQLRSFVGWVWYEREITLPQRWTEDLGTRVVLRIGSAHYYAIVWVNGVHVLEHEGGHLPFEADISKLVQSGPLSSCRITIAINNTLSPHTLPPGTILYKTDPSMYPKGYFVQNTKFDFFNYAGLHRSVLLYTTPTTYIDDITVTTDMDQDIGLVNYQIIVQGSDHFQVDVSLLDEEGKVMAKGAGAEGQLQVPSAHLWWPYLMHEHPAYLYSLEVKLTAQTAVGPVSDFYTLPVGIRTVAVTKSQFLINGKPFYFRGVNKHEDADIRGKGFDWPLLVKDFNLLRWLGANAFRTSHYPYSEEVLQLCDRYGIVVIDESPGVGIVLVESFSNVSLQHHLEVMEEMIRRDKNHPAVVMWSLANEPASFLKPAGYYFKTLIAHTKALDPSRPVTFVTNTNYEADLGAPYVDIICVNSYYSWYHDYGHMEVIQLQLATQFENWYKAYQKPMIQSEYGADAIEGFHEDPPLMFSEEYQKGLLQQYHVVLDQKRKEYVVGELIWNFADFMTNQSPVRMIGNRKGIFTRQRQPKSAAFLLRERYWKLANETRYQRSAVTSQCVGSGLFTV

[2] = test system: N-acetyl-β-D-glucosaminidase (Bovine kidney); assay: Glycosidase inhibition: N-acetyl-β-D-glucosaminidase (Bovine kidney); settings: for % Nacetyl glucosaminidase inhibition at 0.8 mM Bovine kidney: approximately 0.8 mM;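 as to all read-outs here: enzyme activity followed by cleavage of the matching p-nitrophenyl glycoside (5 mM) in phosphate buffer set to the enzyme's optimal pH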
[3] = target: α-D-glucosidase (Bacillus) (Geobacillus stearothermophilus, UniProt A0ACH1E9U3); assay: Glycosidase inhibition: α-D-glucosidase (Bacillus); settings: compounds tested at 0.8 mM
Sequence of α-D-glucosidase (Bacillus) (A0ACH1E9U3 entry or part of it): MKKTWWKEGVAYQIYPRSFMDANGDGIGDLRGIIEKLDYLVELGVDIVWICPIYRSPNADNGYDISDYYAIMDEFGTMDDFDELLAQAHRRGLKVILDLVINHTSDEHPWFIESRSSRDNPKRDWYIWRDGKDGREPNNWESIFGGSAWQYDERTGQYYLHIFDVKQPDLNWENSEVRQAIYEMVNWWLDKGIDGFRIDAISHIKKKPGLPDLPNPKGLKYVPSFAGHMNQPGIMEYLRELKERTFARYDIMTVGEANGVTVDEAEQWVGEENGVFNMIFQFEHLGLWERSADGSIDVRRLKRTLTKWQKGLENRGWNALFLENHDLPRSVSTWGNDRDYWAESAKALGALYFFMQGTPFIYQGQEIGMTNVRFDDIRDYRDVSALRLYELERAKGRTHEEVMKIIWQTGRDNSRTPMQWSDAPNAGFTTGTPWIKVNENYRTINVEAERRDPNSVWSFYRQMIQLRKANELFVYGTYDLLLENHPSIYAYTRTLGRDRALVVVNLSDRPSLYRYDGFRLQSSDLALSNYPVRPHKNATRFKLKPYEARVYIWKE
From the text: (§1) The results tabulated below were obtained using commercially available glycosidases and p-nitrophenyl-substrates using standard methods described for example by Watson et al (1997) Phytochemistry 46 255-259. All enzymes and substrates were bought from Sigma. Enzyme and substrate solutions were made using sodium phosphate buffers at the pH optima values. The enzymes used were α-D-glucosidase Saccharomyces cerevisiae, Bacillus stearothermophilus, Oryzae sativa), β-D-glucosidase (Almond), α-D-mannosidase (Jack bean), α-D-galactosidase (Green coffee beans), β-D-galactosidase (Bovine liver), α-L-fucosidase (Bovine kidney), N-acetyl-β-D-glucosaminidase (Bovine kidney, Jack bean, Aspergillus oryzae), Naringinase (Penicillium decumbens) and amyloglucosidase (Aspergillus niger). All enzymes were used with the appropriate p-nitrophenyl substrates (5 mM). Amyloglucosidase activity was measured using amylopectin (0.1%) (Merck) mixed with sodium phosphate buffer, pH 4.5 in a glass bottle, and healed in a boiling water bath for 20 minutes to dissolve with released glucose measured using ‘Trinder’ glucose detection solution (Sigma).
(§2) All enzymes and para-nitrophenyl substrates were purchased from Sigma, with the exception of beta-mannosidase which came from Megazyme. Enzymes were assayed at 27° C. in 0.1M citric acid/0.2M disodium hydrogen phosphate buffers at the optimum pH for the enzyme. The incubation mixture consisted of 10 μl enzyme solution, 10 μl of 1 mg/ml aqueous solution of extract and 50 μl of the appropriate 5 mM para-nitrophenyl substrate made up in buffer at the optimum pH for the enzyme. The reactions were stopped by addition of 70 μl 0.4M glycine (pH 10.4) during the exponential phase of the reaction, which had been determined at the beginning using uninhibited assays in which water replaced inhibitor. Final absorbances were read at 405 nm using a Versamax microplate reader (Molecular Devices). Assays were carried out in triplicate, and the values given are means of the three replicates per assay. (See Watson, A. A., Nash, R. J., Wormald, M. R., Harvey, D. J., Dealler, S., Lees, E., Asano, N., Kizu, H., Kato, A., Griffiths, R. C., Cairns, A. J. and Fleet, G. W. J. (1997). Glycosidase-inhibiting pyrrolidine alkaloids from Hyacinthoides non-scripta. Phytochemistry 46 (2): 255-259.)

α-D-glucosidase (Rice) = target: T2, α-D-glucosidase (Rice) (Oryza sativa subsp. japonica, UniProt Q653V7); assay: Glycosidase inhibition: α-D-glucosidase (Rice)
T2 construct: purchased Sigma
T2 sequence (Q653V7 34-885): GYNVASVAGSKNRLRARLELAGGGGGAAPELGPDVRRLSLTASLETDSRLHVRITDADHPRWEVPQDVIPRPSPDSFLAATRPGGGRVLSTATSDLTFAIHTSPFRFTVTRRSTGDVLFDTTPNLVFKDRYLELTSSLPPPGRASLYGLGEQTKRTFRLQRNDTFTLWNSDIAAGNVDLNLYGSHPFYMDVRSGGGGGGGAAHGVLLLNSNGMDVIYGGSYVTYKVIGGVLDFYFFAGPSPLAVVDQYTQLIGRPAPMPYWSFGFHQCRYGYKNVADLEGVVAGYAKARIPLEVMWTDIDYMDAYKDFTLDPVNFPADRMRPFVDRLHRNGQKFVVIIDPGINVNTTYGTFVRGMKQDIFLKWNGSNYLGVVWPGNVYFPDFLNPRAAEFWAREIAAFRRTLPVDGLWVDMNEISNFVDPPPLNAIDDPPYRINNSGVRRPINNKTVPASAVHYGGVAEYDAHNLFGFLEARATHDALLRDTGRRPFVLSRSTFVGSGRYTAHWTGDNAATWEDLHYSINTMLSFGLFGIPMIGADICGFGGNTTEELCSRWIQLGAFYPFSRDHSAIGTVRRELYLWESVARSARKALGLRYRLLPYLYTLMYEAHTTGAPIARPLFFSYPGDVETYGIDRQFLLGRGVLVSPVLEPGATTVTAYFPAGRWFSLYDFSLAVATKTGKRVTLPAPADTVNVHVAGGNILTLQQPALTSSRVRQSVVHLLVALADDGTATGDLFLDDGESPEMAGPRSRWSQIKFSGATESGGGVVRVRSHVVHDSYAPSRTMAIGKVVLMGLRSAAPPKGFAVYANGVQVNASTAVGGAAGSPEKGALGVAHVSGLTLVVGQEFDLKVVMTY

[4] = target: T3, α-D-mannosidase Jack bean (Canavalia ensiformis, UniProt C0HJB3); assay: Glycosidase inhibition: α-D-mannosidase Jack bean; settings: compounds tested at 0.8 mM
T3 construct: α-D-mannosidase (Jack bean); purchased Sigma
T3 sequence (C0HJB3 1-981): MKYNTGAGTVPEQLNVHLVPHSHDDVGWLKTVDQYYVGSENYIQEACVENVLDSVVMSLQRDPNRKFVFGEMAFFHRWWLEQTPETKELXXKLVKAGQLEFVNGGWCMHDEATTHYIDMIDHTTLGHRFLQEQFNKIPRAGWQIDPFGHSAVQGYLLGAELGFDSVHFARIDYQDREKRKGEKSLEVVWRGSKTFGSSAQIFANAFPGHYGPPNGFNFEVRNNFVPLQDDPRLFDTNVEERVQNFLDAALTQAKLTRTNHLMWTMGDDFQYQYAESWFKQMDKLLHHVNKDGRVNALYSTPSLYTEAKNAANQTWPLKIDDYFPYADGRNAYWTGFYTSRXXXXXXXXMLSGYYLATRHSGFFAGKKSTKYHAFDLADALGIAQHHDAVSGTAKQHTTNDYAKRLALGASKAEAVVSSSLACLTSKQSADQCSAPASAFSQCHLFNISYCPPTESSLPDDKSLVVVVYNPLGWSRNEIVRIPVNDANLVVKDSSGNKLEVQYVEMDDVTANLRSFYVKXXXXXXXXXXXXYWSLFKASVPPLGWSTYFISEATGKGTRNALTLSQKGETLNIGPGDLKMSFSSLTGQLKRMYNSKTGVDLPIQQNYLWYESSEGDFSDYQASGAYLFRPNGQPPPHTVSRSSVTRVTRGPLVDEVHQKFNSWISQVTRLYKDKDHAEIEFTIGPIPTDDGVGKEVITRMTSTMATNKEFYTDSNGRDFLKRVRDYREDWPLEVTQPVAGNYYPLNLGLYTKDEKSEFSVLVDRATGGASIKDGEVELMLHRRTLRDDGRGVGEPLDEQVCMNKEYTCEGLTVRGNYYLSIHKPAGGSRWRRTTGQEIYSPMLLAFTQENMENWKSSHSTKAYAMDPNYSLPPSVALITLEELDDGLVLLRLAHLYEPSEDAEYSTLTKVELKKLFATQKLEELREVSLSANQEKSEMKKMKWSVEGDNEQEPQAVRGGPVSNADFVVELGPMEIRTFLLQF

[5] = target: T4, Amyloglucosidase Aspergillus niger (Aspergillus niger, UniProt P69328); assay: Glycosidase inhibition: Amyloglucosidase Aspergillus niger; settings: compounds tested at 0.8 mM
T4 construct: purchased Sigma
T4 sequence (P69328 25-640): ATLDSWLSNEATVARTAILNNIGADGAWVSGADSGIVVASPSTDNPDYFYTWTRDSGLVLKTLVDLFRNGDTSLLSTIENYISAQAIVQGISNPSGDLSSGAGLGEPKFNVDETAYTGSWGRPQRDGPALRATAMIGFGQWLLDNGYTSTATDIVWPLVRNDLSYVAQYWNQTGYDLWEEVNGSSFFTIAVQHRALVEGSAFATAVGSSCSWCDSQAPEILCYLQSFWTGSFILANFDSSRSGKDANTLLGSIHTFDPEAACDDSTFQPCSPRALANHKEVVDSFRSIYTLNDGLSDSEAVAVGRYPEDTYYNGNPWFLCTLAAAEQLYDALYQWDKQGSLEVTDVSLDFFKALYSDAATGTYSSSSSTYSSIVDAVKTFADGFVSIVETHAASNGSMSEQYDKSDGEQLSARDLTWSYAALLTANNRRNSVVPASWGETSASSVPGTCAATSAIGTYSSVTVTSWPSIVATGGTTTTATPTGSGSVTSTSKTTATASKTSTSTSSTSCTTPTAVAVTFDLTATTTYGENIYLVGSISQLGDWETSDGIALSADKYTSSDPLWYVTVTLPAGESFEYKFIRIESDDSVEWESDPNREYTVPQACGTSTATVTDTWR
From the text: as §1, §2

α-D-glucosidase (Yeast) = target: T5, α-D-glucosidase (Yeast) (Saccharomyces cerevisiae, UniProt P53341); assay: Glycosidase inhibition: α-D-glucosidase (Yeast); settings: compounds tested at 0.8 mM
T5 construct: purchased Sigma
T5 sequence (P53341 whole entry): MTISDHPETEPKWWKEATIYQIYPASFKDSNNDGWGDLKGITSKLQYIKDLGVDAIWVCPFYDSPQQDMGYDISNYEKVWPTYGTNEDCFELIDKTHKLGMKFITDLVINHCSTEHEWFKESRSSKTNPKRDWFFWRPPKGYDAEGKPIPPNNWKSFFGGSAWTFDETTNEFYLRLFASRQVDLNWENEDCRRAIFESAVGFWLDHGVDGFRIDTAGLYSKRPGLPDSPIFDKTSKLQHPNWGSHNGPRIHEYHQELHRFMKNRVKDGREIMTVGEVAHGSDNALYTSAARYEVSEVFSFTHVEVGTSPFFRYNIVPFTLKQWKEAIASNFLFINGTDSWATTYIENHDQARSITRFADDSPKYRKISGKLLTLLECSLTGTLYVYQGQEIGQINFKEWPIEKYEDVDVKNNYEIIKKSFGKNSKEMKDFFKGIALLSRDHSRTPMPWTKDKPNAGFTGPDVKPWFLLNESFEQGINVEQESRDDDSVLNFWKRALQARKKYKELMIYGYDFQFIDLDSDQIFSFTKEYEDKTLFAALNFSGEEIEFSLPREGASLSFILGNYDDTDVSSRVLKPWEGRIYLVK
From the text: as §1, §2

[6] = target: T6, α-L-fucosidase Bovine kidney (Bos taurus, UniProt Q2KIM0); assay: Glycosidase inhibition: α-L-fucosidase Bovine kidney; settings: compounds tested at 0.8 mM
T6 construct: α-L-fucosidase (Bovine kidney); purchased Sigma; host or cells: bovine kidney
T6 sequence (Q2KIM0 23-468): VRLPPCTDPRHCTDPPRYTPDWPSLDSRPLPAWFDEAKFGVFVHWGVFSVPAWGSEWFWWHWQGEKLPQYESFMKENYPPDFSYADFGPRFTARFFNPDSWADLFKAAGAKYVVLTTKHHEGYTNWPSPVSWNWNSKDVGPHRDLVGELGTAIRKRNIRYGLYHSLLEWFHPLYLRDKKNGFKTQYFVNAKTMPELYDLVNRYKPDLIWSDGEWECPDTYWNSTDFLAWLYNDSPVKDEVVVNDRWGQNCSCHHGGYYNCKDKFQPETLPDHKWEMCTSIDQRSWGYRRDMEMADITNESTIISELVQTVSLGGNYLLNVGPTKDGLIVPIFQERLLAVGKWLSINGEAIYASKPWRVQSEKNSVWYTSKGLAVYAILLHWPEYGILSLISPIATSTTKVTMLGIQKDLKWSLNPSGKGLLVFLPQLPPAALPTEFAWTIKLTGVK

[7] = target: T7, N-acetyl-β-D-glucosaminidase (A. oryzae) (Aspergillus oryzae, UniProt Q8J2T0); assay: Glycosidase inhibition: N-acetyl-β-D-glucosaminidase (A. oryzae); settings: compounds tested at 0.8 mM
T7 construct: purchased Sigma
T7 sequence (Q8J2T0 97-600): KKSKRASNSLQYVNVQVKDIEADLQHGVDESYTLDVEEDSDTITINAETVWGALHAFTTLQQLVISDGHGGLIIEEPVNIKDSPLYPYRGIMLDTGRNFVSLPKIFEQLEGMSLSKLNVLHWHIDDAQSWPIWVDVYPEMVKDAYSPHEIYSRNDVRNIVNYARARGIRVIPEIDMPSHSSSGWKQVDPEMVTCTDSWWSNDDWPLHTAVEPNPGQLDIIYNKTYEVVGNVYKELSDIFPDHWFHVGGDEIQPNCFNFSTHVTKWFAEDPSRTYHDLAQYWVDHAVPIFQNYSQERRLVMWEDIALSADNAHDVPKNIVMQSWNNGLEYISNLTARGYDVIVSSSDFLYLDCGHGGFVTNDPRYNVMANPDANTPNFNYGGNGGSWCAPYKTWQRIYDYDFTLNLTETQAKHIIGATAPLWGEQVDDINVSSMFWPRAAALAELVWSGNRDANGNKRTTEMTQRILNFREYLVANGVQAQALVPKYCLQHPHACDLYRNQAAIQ
From the text: as §1, §2

[8] = target: T8, α-D-galactosidase Green coffee bean (Coffea arabica, UniProt Q42656); assay: Glycosidase inhibition: α-D-galactosidase Green coffee bean; settings: compounds tested at 0.8 mM
T8 construct: α-D-galactosidase (Green coffee beans); purchased Sigma; host or cells: green coffee beans
T8 sequence (Q42656 16-378): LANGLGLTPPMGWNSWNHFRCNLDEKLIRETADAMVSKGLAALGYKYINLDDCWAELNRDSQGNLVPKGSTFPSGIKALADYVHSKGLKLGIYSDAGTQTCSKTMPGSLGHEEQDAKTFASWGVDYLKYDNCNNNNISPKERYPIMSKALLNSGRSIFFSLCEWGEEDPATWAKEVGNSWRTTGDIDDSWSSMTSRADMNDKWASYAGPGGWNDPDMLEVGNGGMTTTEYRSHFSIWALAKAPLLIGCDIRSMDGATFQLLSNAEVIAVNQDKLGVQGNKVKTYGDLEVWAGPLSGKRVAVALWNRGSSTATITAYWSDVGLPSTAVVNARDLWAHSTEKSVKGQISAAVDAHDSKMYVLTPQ
From the text: as §1, §2

[9] = read-out: IC50 Glucuronidase Bovine Liver
[10] = read-out: IC50 Nacetyl glucosaminidase Bovine kidney

Row | SMILES | % Glucuronidase inhibition at 0.8 mM Bovine Liver [1] | % Nacetyl glucosaminidase inhibition at 0.8 mM Bovine kidney [2] | further results
1 | N[C@]1(C(=O)O)C[C@H](CO)C1 | −2.2% | 7.1% | –
2 | O=C(O)[C@@H]1[C@@H](O)[C@H](O)[C@H]2[C@@H](O)CCN21 | −2.3% | 5.1% | –
3 | CCC1CC(CC2CC(CCCC(C)C)[C@@H](CC)C(C)[C@H]2C)C(C)C(C)C1C (stereo partly drawn) | 3.9% | 49.4% | –
4 | CN1C[C@H](O)C[C@H]1C(=O)O | −3.7% | −4.7% | –
5 | C[N+]1(C)C[C@@H](O)[C@H](O)[C@H]1C(=O)[O-] | 3.8% | 8% | –
6 | CC(O)(CC(N)C(=O)O)C(=O)O (stereo not drawn) | −3.2% | −4.2% | –
7 | C[N+]1(C)CCC[C@H]1C(=O)[O-] | −1.7% | 2.3% | –
8 | CC(CC(N)C(=O)O)C(=O)O (stereo not drawn) | −1.6% | 0.8% | –
9 | CC[C@@H]1C(C)[C@H](C)CN1CCCC(C)=O (stereo partly drawn) | −2% | 17% | –
10 | O=C(O)CCC1[C@H](CO)C(=O)[C@H](O)[C@H]1CO (stereo partly drawn) | 85.3% | 90.1% | IC50 [1, 9]: 81 µM; IC50 [2, 10]: 5.1 µM
11 | CC[C@@H]1C(=O)[C@H](O)CN1CCCCC(=O)O | 0.8% | 8% | –
12 | O=C(O)[C@H]1N[C@H](CO)C(O)[C@H](O)[C@@H]1O (stereo partly drawn) | 3.3% | 25.8% | –
13 | O=C(O)CN1C[C@@H](O)[C@@H](O)C1[C@@H](O)CO (stereo partly drawn) | 4% | 82.3% | IC50 [2, 10]: 137 µM
14 | Cn1c(=O)c2c(ncn2C)n(C)c1=O [Caffeine, reference compound] | – | – | inhibition at 143 µg/mL ([1]; 143 ug/ml): -2.4%; Mean % Inhibition, N-acetyl-β-D-glucosaminidase Bovine kidney ([2]; 143 ug/ml): 1.3%
15 | O=C(O)CN1C[C@H](O)[C@@H](O)[C@H](O)[C@H]1CO [Compound G6, 2-((2R,3R,4R,6S)-3,4,5-Trihydroxy-2-(hydroxymethyl)piperidin-1-yl)acetic acid] | – | – | IC50 ([1]; pH 5.0, 27° C., p-nitrophenyl β-D-glucuronide, read-out: IC50, β-Glucuronidase Bovine liver): 80 µM; inhibition at 800 µM [3]: < 50%; inhibition at 800 µM (α-D-glucosidase (Rice); compounds tested at 0.8 mM): 99.7%; IC50 (α-D-glucosidase (Rice); read-out: IC50, α-D-glucosidase (Rice)): 1 µM; inhibition at 800 µM [4]: < 50%; inhibition at 800 µM [5]: < 50%; inhibition at 800 µM (α-D-glucosidase (Yeast)): < 50%; % inhibition, N-acetyl-β-D-glucosaminidase (Bovine kidney) ([2]; compounds tested at 0.8 mM): 83.6%; IC50 ([2]; read-out: IC50, N-acetyl-β-D-glucosaminidase (Bovine kidney)): 10.4 µM; inhibition at 800 µM [6]: < 50%; inhibition at 800 µM [7]: < 50%; inhibition at 800 µM [8]: < 50%
16 | O=C(O)[C@H]1NC[C@H](O)[C@@H](O)[C@@H]1O [drawing 22] | 88.9% | 2.4% | IC50 [1, 9]: 107 µM

Further lines, with some results ahead:

Row | % Glucuronidase inhibition at 0.8 mM Bovine Liver [1] | % Nacetyl glucosaminidase inhibition at 0.8 mM Bovine kidney [2] | SMILES | further results
17 | −4.4% | −0.6% | C[N+]1([O-])CC[C@H](O)[C@@H]1C(=O)O (stereo partly drawn) | –
18 | 58.6% | 4.8% | O=C(O)[C@@]1(O)CNC[C@@H](O)[C@H]1O | IC50 [1, 9]: 531 µM
19 | 1.4% | 2.9% | O=C(O)[C@]1(O)NC[C@@H](O)[C@H]1O | –
20 | 0.6% | 7.6% | C[C@@]1(C(=O)O)NC[C@H](O)[C@H]1O | –
21 | 13.8% | 6.6% | O=C(O)[C@H]1NCC(O)C1O (stereo partly drawn) | –
22 | 97.9% | 57.9% | CC(=O)NC1NC[C@H](C(=O)O)[C@H](O)[C@@H]1O (stereo partly drawn) | IC50 [1, 9]: 7.3 µM
23 | 99.6% | −5.2% | O=C(O)[C@H]1NC(=O)[C@H](O)[C@@H](O)[C@@H]1O | IC50 [1, 9]: 0.04 µM
